Test results from patent publication US7772206B2, “Methods and compositions for the treatment of autoimmune disorders using clofarabine” (Genzyme Corporation, priority 2002, dated 2010).

Tests used:
[1] = degradation of the drug during dissolution, lyophilization and drying of the parenteral formulation; format: physicochemical; conditions: dissolution in tertiary butanol/Water for Injection at 5° C., lyophilization at −16° C. for 48 hours, drying at 15° C. under high vacuum for 48 hours, protected from light
Procedure: Clofarabine, 9.86 g, is wetted/partially dissolved with 600 mL of a 9:1 mixture of tertiary butanol and Water for Injection USP which is pre-cooled to 5° C. Once the drug powder is completely wetted, dissolution is completed by the addition of 600 mL of a 1:9 mixture of tertiary butanol and Water for Injection and 766 mL of a 1:1 mixture of tertiary butanol and Water for Injection which likewise is pre-cooled to 5° C. thereby making the final solution a 1:1 mixture. The dissolution is carried out under protection from light.
The solution formed above is promptly lyophilized in a Virtis INOTOP lyophilizer at −16° C. under light protectant conditions over a period of 48 hours. The resultant lyophilized product (lyophile) is then further dried at 15° C. under high vacuum for 48 hours. […] The lyophile is packaged under sterile conditions into 30 mL vials, each containing 50 mg of drug, 50 mg of mannitol and sodium hydroxide to adjust the pH to 7.7 and standard excess to allow for vial/needle/syringe loss.

[2] = maximum tolerated dose of clofarabine; format: in vivo; conditions: species and study not stated
Procedure: It may be necessary to use dosages of the active ingredient outside the ranges disclosed herein in some cases, as will be apparent to those of ordinary skill in the art, but the dosage should not fall below 1.0 mg/kg/day. The maximum tolerated doses of clofarabine is approximately 80 mg/kg per day. Furthermore, it is noted that the clinician or treating physician will know how and when to interrupt, adjust, or terminate therapy in conjunction with individual patient response.

Which results are given for `Nc1nc(Cl)nc2c1ncn2[C@@H]1O[C@H](CO)[C@@H](O)[C@@H]1F` [Clofarabine, 2 Chloro 9 (2 deoxy 2 fluoro β D arabinofuranosyl)adenine]?
degradation of the drug [1]: No detectable degradation; maximum tolerated dose [2]: approximately 80 mg/kg per day
